Measured values from ChEMBL document CHEMBL4619815, “Hitting a Moving Target: Simulation and Crystallography Study of ATAD2 Bromodomain Blockers” (ACS Med Chem Lett, 2020).

Columns and labels:
[1] = target: T1, ATPase family AAA domain-containing protein 2 (Homo sapiens, UniProt Q6PL18); experiment: Inhibition of recombinant human N-terminal GST-tagged ATAD2 bromodomain (981 to 1146 residues) expressed in Escherichia coli using biotinylated peptide SGRGK(Ac)GGKGLGKGGAKRHRKVLRDNGSGS as substrate incubated for 3 hrs by TR-FRET assay
T1 sequence (Q6PL18 whole entry): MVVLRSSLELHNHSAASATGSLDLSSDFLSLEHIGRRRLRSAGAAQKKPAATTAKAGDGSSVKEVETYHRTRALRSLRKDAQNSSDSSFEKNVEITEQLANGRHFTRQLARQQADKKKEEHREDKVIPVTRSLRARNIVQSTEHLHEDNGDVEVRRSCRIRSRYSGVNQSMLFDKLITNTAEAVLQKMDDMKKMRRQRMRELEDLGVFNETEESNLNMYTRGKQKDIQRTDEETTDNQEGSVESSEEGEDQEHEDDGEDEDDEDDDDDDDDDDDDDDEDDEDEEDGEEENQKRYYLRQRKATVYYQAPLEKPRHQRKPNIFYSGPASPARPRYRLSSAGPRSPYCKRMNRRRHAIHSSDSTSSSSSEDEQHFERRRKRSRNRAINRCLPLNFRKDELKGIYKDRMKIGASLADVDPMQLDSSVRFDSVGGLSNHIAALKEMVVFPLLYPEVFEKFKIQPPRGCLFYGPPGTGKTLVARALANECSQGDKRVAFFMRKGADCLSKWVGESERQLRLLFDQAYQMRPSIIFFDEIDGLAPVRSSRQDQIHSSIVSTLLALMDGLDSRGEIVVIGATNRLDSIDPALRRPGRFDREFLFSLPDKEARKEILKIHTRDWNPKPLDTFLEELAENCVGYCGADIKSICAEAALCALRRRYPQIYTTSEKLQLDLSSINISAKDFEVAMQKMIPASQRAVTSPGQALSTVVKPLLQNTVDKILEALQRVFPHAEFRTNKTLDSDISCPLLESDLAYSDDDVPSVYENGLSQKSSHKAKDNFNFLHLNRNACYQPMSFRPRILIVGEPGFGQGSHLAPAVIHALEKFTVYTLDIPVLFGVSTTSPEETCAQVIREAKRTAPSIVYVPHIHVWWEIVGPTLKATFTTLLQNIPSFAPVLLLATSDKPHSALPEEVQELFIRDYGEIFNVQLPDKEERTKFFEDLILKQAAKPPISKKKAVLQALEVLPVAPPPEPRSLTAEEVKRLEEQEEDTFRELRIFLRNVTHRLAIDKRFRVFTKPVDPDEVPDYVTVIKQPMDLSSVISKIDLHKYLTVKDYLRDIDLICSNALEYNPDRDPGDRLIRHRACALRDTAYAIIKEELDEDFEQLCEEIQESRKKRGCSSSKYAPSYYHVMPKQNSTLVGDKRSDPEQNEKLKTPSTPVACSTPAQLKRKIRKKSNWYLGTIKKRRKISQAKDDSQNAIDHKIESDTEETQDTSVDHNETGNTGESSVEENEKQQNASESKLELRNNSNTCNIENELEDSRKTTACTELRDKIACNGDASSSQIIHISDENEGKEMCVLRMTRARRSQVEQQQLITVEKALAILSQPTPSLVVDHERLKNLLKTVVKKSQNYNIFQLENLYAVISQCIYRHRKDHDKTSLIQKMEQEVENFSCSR

[2] = target: T1, ATPase family AAA domain-containing protein 2; experiment: Binding affinity to recombinant human N-terminal GST-tagged ATAD2 bromodomain (981 to 1146 residues) expressed in Escherichia coli at 10 degree C by isothermal titration calorimetry

Row | IC50 [1] | Kd [2] | Structure (SMILES)
1 | > 150 µM | – | CC(=O)c1nc(NC(=O)[C@H]2CNCCN2)sc1-c1ccc(N2CCCC2=O)cc1
2 | > 150 µM | – | CC(=O)c1csc(NC(=O)C(C)(C)N)n1
3 | > 150 µM | – | CC(=O)c1nc(NC(=O)[C@@H](C)N)sc1-c1cccc(O)c1
4 | > 150 µM | – | CC(=O)c1nc(NC(=O)[C@H]2CNCCN2)sc1-c1cncc(N)c1
5 | > 150 µM | – | C[C@@H](N)C(=O)Nc1nc2c(s1)CCCC2=O
6 | > 150 µM | – | CC(=O)c1nc(NC(=O)C(C)(C)N)sc1-c1cncc(N)c1
7 | 15 µM | 25 µM | CC(=O)c1csc(NC(=O)[C@H]2CNCCN2CCC2CCC(F)(F)CC2)n1
8 | > 150 µM | – | CC(=O)c1csc(NC(=O)[C@H]2CNCCN2)n1
9 | > 150 µM | – | CC(=O)c1nc(NC(=O)[C@@H](C)N)sc1-c1cccc(N)c1
10 | > 150 µM | – | CC(=O)c1nc(NC(=O)[C@@H](C)N)sc1-c1cncc(N)c1
11 | > 150 µM | – | CC(=O)c1nc(NC(=O)[C@@H](C)NC(=N)N)sc1-c1cncc(N)c1
12 | > 150 µM | – | CC(=O)c1nc(NC(=O)[C@H]2CNCCN2CCC2CCC(F)(F)CC2)sc1-c1cncc(N)c1
13 | > 150 µM | – | CC(=O)c1nc(NC(=O)[C@H]2CNCCN2)sc1-c1ccc(C(=O)N2CCOCC2)cc1
14 | 80 µM | – | CC(=O)c1nc(NC(=O)C2(N)CCC2)sc1-c1cncc(N)c1
15 | 140 µM | – | CC(=O)c1csc(NC(=O)[C@@H](C)NC(=N)N)n1
16 | 336 µM | – | CC(=O)c1csc(NC(=O)[C@@H](C)N)n1
17 | 95 µM | – | CC(=O)c1nc(NC(=O)[C@@H](C)N)sc1-c1cccnc1
18 | > 150 µM | – | COc1cccc(-c2sc(NC(=O)[C@@H](C)N)nc2C(C)=O)c1
